The test system of data set [1] is proliferating animal and human smooth muscle cells. The data set can be described thus: Growth inhibition of smooth muscle cells in culture. Type of data set: cell-based. As to conditions: compared with sirolimus. The source says: Like sirolimus and everolimus, BIOLIMUS A9 is rapidly absorbed in tissues and is able to reversibly bind to immunophilins (cytoplasmic proteins) found inside living cells.

Data set [2] can be described thus: Partition coefficient (log P), reverse phase HPLC.
Data set [3] in a line: Solubility of BIOLIMUS A9. Type of data set: physicochemical.

The values below come from patent publication US20100055145A1, “STENT COATINGS FOR REDUCING LATE STENT THROMBOSIS” (Biosensors International Group, priority 2008, published 2010).

Structures are written as SMILES.

Turning to `CCOCCO[C@@H]1CC[C@@H](C[C@@H](C)[C@@H]2CC(=O)[C@H](C)/C=C(\C)[C@@H](O)[C@@H](OC)C(=O)[C@H](C)C[C@H](C)/C=C/C=C/C=C(\C)[C@@H](OC)C[C@@H]3CC[C@@H](C)[C@@](O)(O3)C(=O)C(=O)N3CCCC[C@H]3C(=O)O2)C[C@H]1OC` [BIOLIMUS A9, 42-O-(2-ethoxyethyl)rapamycin], in data set [1], the “potency of growth inhibition of proliferating smooth muscle cells” value is given as “potency similar to that of sirolimus”. Further, in data set [2] (As measured by reverse phase HPLC), the “Partition Coefficient (E Log Poct): Log Pn-octanol” value was “Log Pn-octanol = 7.63”. Also, the “partition coefficient (log P)” value in data set [2] (pH 7.40, estimated) is 7.63. For the same compound, the peak blood levels (after stent implantation) amounted to 3 ng/mL. The “peak blood level lower than therapeutic levels of oral sirolimus or everolimus following organ transplant” value (in vivo, po) is 20 fold. The “Solubility: 25% ethanol in water” value in data set [3] (25% ethanol in water) is “Practically insoluble”. Further, in data set [3] (ethanol), the “Solubility: ethanol” value is on record as “Very soluble”. For the same compound, in data set [3] (ethyl acetate), the “Solubility: ethyl acetate” value is on record as “Very soluble”. In addition, the “Solubility: methanol” value in data set [3] (methanol) was “Very soluble”. For the same compound, the “Solubility: water (independent of pH)” value in data set [3] (water (independent of pH)) is recorded as “Practically insoluble”.
